In the METLIN SMRT retention time set (Domingo-Almenara et al. 2019):

Test: gradient 5% acetonitrile 3 min, to 50% in 2 min, to 85% in 15 min, held 3 min, 100 µL/min
Details: column: Zorbax Extend-C18 2.1 x 50 mm; eluents: water / acetonitrile, 0.1% formic acid
Summary of the method: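 Retention times come from adduct peaks that were picked computationally and then checked by hand. The standards, pure and pooled in mixtures of ~100 molecules, were run on a Zorbax Extend-C18 column (2.1 × 50 mm, 1.8 μm) at 100 μL/min with water and acetonitrile, each with 0.1% formic acid. Detection was by quadrupole time-of-flight mass spectrometry in positive and negative ionization mode, with a dead volume of 40 μL and a dwell volume of 900 μL.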

Row | RP-LC retention time [s] | SMILES
1 | 923 | Cc1ccccc1-c1noc(Cn2ccn(-c3c(C)cccc3C)c(=O)c2=O)n1
2 | 1010 | COc1cccc(Cc2nc(-c3cccc(-c4ccnn4C)c3)no2)c1
3 | 1280 | Cc1nc(-c2cccc(-c3noc(COc4ccc(Cl)cc4)n3)c2)cs1
4 | 827 | Cn1cc(-c2noc(-c3ccc(F)cc3)n2)ccc1=O
5 | 789 | COC(=O)C1=CN(c2ccc(F)c(F)c2)c2ccccc2S1(=O)=O
6 | 918 | Cc1ccc(-c2cc3c4nn(CC(=O)NC5CCCC5)c(=O)n4ccn3n2)cc1C
7 | 733 | CC1=C(c2ccc(Cl)cc2)S(=O)(=O)N=C1N1CCCN(C(=O)C2CCOC2)CC1 (configuration not stated)
8 | 1190 | Cc1ccccc1Cc1noc(-c2nc(-c3ccc4c(c3)OCO4)no2)n1
9 | 566 | O=C(Nc1ccccc1Br)N1CCc2nc[nH]c2C1
10 | 706 | Cc1ccccc1S(=O)(=O)N1CCC(n2cnnc2C2CC2)CC1
11 | 1160 | Cc1ccccc1OCc1nc(-c2ccc3c(c2)oc(=O)n3C(C)C)no1
12 | 1030 | CCCc1noc(-c2ccc(-n3ncc(C(=O)NC4CCCC4)c3C)nc2)n1
13 | 654 | COCC1CN(S(=O)(=O)Cc2ccc(C)c(C)c2)CC12CCNCC2 (configuration not stated)
14 | 611 | CC1CC(=O)c2cnc(N3CCN(c4ccccn4)CC3)nc2C1 (configuration not stated)
15 | 625 | Cc1sc(NC(=O)c2ccccc2)c(CN(C)C)c1C
16 | 655 | O=C(NCc1ccc2c(c1)OCO2)C1CCCN(C(=O)c2cc(-c3ccccn3)n[nH]2)C1 (configuration not stated)
17 | 1140 | Cc1cc(F)ccc1NC(=O)C1CCCN(c2nc3c(s2)c(C)nn3-c2ccccc2)C1 (configuration not stated)
18 | 1120 | O=c1c2cc(-c3ccc(F)cc3)nn2ccn1Cc1ccccc1Cl
19 | 894 | Cc1cc(C)cc(N2CCC(NC(=O)c3ccc(Br)o3)C2=O)c1 (configuration not stated)
20 | 557 | CCN1CCN(CCNC(=O)Cn2ccc3c(C)nn(CC)c3c2=O)CC1
21 | 616 | O=C(NC1COc2ccccc2C1)N1CCN(c2ccccn2)CC1 (configuration not stated)
22 | 1400 | Cc1ccc(Oc2nccnc2N2CCCC(C(=O)N3CCN(c4cc(C)ccc4C)CC3)C2)cc1 (configuration not stated)

Row | RP-LC retention time [s] | SMILES
23 | 1100 | COC(=O)Cc1[nH]c(=O)[nH]c1C(=O)OC
24 | 745 | CCCNC(=O)CSc1cn(CC(=O)N2CC(C)OC(C)C2)c2ccccc12 (configuration not stated)
25 | 891 | CCCNC(=O)CCc1nc2ccccc2n(CC(=O)Nc2ccc(C(C)C)cc2)c1=O
26 | 768 | Cc1nc2ccn(Cc3ccco3)c(=O)c2cc1C(=O)NCCc1c[nH]c2ccccc12
27 | 569 | CO[C@H]1C(=O)N(C2CCN(S(=O)(=O)C(C)C)CC2)[C@H]1c1ccncc1
28 | 626 | Cc1ccc(NC(=O)C2CCN(C(=O)c3ncn4c3COC(c3ccccc3)C4)CC2)cc1 (configuration not stated)
29 | 801 | Cc1ccc(NC(=O)N2CCC(n3cnc4ccc(C)cc4c3=O)CC2)cc1
30 | 1100 | CCOC(=O)c1ccc(NC(=O)Cn2c(C)nc3c(sc4nc(-c5ccccc5)ccc43)c2=O)cc1
31 | 1240 | Fc1cccc(-c2noc(-c3cc(N4CCOCC4)nc4ccccc34)n2)c1
32 | 995 | Cc1nc(-c2ccccc2)cc2nn(CC(=O)Nc3ccccc3Br)c(=O)n12
33 | 1010 | O=C(Cn1nc(C(=O)N2CCCCC2)c2ccccc21)N1CCN(c2cccc(Cl)c2)CC1
34 | 740 | CCCS(=O)(=O)N1CCC[C@H]1c1nc(-c2ccc(F)cc2)n[nH]1
35 | 599 | CC1CCN(CCNC(=O)C2CCCN(c3ncnc4c3nc3n4CCCCC3)C2)CC1 (configuration not stated)
36 | 739 | CCOc1ccccc1CNC(=O)Cc1cn(C)c2ncccc12
37 | 674 | Cc1ccnc(NC(=O)C2CCN(S(=O)(=O)c3cc(C(=O)N4CCCC4)n(C)c3)CC2)c1
38 | 1040 | COc1cc(OC)cc(-c2nnc(Cc3nc(-c4ccc(F)cc4)no3)o2)c1
39 | 902 | CCS(=O)(=O)c1ccc2c(c1)N(Cc1nc(-c3ccc(F)cc3)no1)C(=O)CO2
40 | 542 | O=c1cc(CN2CCN(c3ncccn3)CC2)nc2sccn12
41 | 758 | Cc1ccc(N2C(=O)CN(S(C)(=O)=O)CC2(C)C(=O)NCc2ccccc2)cc1C (configuration not stated)
42 | 829 | O=C(c1ccc(-c2cncnc2)nc1)N1CCN(c2ccccc2Cl)CC1
43 | 692 | Cc1ccc(NC(=O)CCC2CCN(c3cc(NC4CC4)ncn3)CC2)cc1
44 | 751 | COC(=O)c1cc2c(=O)n(-c3cc(OC)c(OC)c(OC)c3)ccc2nc1C

Row | RP-LC retention time [s] | SMILES
45 | 750 | CCC(=O)N1CCc2cc(-c3ccc(C(=O)NCCc4c(C)noc4C)cc3)ccc21
46 | 829 | Cc1cc(C)c(NS(=O)(=O)c2ccc(Cl)c(C(=O)O)c2)c(C)c1
47 | 658 | Cc1c(S(=O)(=O)N2CCOCC2)cc(C(=O)N2CCCC2)n1C
48 | 551 | CC(C)CCN1CCC(N(Cc2cccnc2)C2CCOCC2)CC1
49 | 863 | O=C(NCc1cc(-c2ccco2)on1)c1ncc(-c2ccccc2)o1
50 | 882 | O=C(c1cc(Cl)ccc1Cl)N1CCN(c2cc(-c3ccccc3)[nH]n2)CC1
51 | 1040 | COc1ccc(Cl)cc1NC(=O)c1[nH]c(C)c(S(=O)(=O)N2CCCC2)c1C
52 | 742 | O=C(NC1CCN(c2nnc3ccccn23)CC1)c1cc2c(s1)CCCC2
53 | 737 | CC(C)c1noc(-c2cc(=O)n(CC(=O)Nc3ccc(N(C)C)cc3)c3ccccc23)n1
54 | 587 | Cc1nnc(-c2coc(S(=O)(=O)N3CCN(CC(C)C)CC3)c2)o1
55 | 939 | Cc1ccc(S(=O)(=O)N2C[C@H](c3nc(-c4cccnc4)no3)[C@@H](C)C2)cc1
56 | 781 | CCN1CCn2cc(S(=O)(=O)NCc3cccc(C(F)(F)F)c3)cc2C1=O
57 | 1300 | COc1ccc(OCc2nc(-c3ccc(-c4csc(C5CC5)n4)cc3)no2)cc1
58 | 923 | COc1cccc(-c2nnc(Cc3nc(-c4cccc(OC)c4OC)no3)o2)c1
59 | 746 | Cc1cc2c(F)c(Oc3ncnn4cc(OC[C@@H](C)OC(=O)[C@H](C)N)c(C)c34)ccc2[nH]1
60 | 668 | O=C(NCC1CC(=O)N(Cc2ccc(F)cc2)C1)Nc1cccs1 (configuration not stated)
61 | 587 | Cc1ccc(-c2cc3c4nnc(CCC(=O)NC5CCCCCC5)n4ccn3n2)cc1C
62 | 1230 | Cc1ccc(-c2nnc(Cc3nc(-c4ccccc4Cl)no3)o2)cc1C
63 | 974 | CS(=O)(=O)Nc1ccc(-c2noc(COc3ccc(Cl)cc3)n2)cc1
64 | 714 | COc1cccc(-n2cc(C(=O)OCc3ccncc3)c3ccccc3c2=O)c1
65 | 766 | COC(=O)c1c(NCc2ccccc2Cl)c2ccccc2[nH]c1=O
66 | 570 | COc1cc(OC)c(OC)cc1CN1C[C@@H]2C(=O)N(C)C(=O)[C@@H]2C1

Row | RP-LC retention time [s] | SMILES
67 | 1180 | c1ccc2c(Oc3nc(Nc4ccc(N5CCOCC5)cc4)c4ncn(C5CCCCC5)c4n3)cccc2c1
68 | 795 | COc1ccc(C(=O)N2CCc3ccc(C(=O)NCc4ccco4)cc32)cc1
69 | 1050 | Cc1ccc(Nc2c(-c3cc(Br)ccc3O)nc3ncccn23)cc1
70 | 633 | CCCCN(C)CCNC(=O)C1c2ccccc2C(=O)N2CCc3cc(OC)c(OC)cc3C12 (configuration not stated)
71 | 834 | CC1CCN(C(=O)Cn2c(=O)n(-c3ccc(F)cc3)c3ncccc32)CC1
72 | 776 | Cc1ccc(C)c(NC(=O)C2CCCN(c3nnc(C)c4c(C)n(-c5ccccc5)nc34)C2)c1 (configuration not stated)
73 | 922 | CCOc1ccc(-c2nc(Cn3nnc(C(=O)NCc4ccc(OC)cc4)c3N)c(C)o2)cc1OC
74 | 873 | Cc1ccccc1CNC(=O)C1=C2CCCN2c2ccccc2S1(=O)=O
75 | 787 | O=C(NC1CCN(c2cc(-c3ccc(Cl)cc3)[nH]n2)C1)c1ccccc1Br (configuration not stated)
76 | 1020 | COc1ccc(C)cc1NC(=O)N(C)CCc1noc(COc2cccc(C)c2)n1
77 | 783 | O=C(Nc1ccccc1-c1cn2c(CN3CCNCC3)csc2n1)c1cnc2ccccc2n1
78 | 772 | Cc1ccc2c(C)nc(NC3=NCN(Cc4ccccc4)CN3)nc2c1
79 | 587 | COc1ccc(S(=O)Cc2ccc(C(=O)NCCCN3CCCCC3)o2)cc1 (configuration not stated)
80 | 867 | COc1ccc(OC)c(CCNC(=O)c2c(N3CCCC3=O)c3cc(OC)ccc3n2C)c1
81 | 830 | CCc1ccc(CN2C(=O)c3ccccc3C2C(=O)NCC2CCCO2)cc1 (configuration not stated)
82 | 1130 | COc1cc(OC)cc(-c2noc(Cn3ccn4nc(-c5ccc(Cl)cc5)cc4c3=O)n2)c1
83 | 903 | O=C(NCCc1ccccc1)Nc1nccn(-c2ccc(F)c(F)c2)c1=O
84 | 960 | CCSc1nnc(-c2nn(C)c3c2CN(S(=O)(=O)Cc2ccccc2Cl)CC3)n1CC
85 | 782 | O=C(O)c1cccn2c(=O)c3cc(Cl)ccc3nc12
86 | 1030 | CN(C)c1cccc(-c2nc(C3CC(=O)N(c4ccc(F)cc4)C3)no2)c1 (configuration not stated)

Row | SMILES | RP-LC retention time [s]
87 | COc1ccc2c(c1)C1(CCN(C(=O)Nc3cccc(F)c3)C1)C(=O)N2 (configuration not stated) | 683
